Measured values taken from BindingDB's records for doi:10.1016/j.bmcl.2019.126678 (Vanderbilt University, 2019).

Tests used:
[1] = biological target: Muscarinic acetylcholine receptor M4 (human) (UniProt P08173); experiment: Positive allosteric modulation of human M4 receptor expressed in CHO cells co-expressing Gqi5 assessed as increase in acetylcholine-induced calcium mobilization incubated with EC20 ACh for 140 secs and subsequent EC80 Ach addition further incubated for 120 secs by Fluo-4-AM dye based fluorescence assay
[2] = biological target: Muscarinic acetylcholine receptor M4 (rat); experiment: Positive allosteric modulation of rat M4 receptor expressed in CHO cells co-expressing Gqi5 assessed as increase in acetylcholine-induced calcium mobilization incubated with EC20 ACh for 140 secs and subsequent EC80 Ach addition further incubated for 120 secs by Fluo-4-AM dye based fluorescence assay

Muscarinic acetylcholine receptor M4 (human), sequence (P08173 whole entry, looked up): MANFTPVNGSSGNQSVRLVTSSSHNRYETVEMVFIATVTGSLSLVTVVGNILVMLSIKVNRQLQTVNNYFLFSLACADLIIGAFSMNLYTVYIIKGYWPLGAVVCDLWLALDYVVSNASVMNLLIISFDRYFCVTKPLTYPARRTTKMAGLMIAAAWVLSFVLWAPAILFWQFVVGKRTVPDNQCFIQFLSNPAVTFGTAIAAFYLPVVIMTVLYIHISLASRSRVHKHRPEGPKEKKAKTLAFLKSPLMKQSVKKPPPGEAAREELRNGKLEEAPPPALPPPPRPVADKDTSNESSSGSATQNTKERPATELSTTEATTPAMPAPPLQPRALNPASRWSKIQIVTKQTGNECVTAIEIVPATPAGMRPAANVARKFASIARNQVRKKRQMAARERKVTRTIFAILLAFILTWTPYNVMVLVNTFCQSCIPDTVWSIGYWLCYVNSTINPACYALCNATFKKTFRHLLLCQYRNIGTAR

## Cc1nnc2ccc(C(=O)NC3CN(c4cccc(C(F)(F)F)n4)C3)cc2c1C
[1]
  EC50: 3360 nM

## Cc1nnc2ccc(C(=O)NC3CN(c4cccc(F)n4)C3)cc2c1C
[1]
  EC50: 668 nM

## Cc1nnc2ccc(C(=O)NC3CN(c4ncc(C#N)cc4Cl)C3)cc2c1C
[1]
  EC50: 304 nM
[2]
  EC50: 138 nM

## Cc1nnc2ccc(C(=O)NC3CN(c4ncc(C(F)(F)F)cn4)C3)cc2c1C
[1]
  EC50: > 10000 nM

## Cc1nnc2ccc(C(=O)NC3CN(c4ncc(OC(C)C)cn4)C3)cc2c1C
[1]
  EC50: 3200 nM

## Cc1nnc2ccc(C(=O)NC3CN(c4ccc(C#N)cn4)C3)cc2c1C
[1]
  EC50: 1030 nM

## Cc1nnc2ccc(C(=O)NC3CN(c4ncc(C5CC5)cc4Cl)C3)cc2c1C
[1]
  EC50: 1390 nM

## Cc1nnc2ccc(C(=O)NC3CN(c4ncc(C(F)(F)F)cc4Cl)C3)cc2c1C
[1]
  EC50: 2630 nM

## Cc1nnc2ccc(C(=O)NC3CN(c4cccc(Cl)n4)C3)cc2c1C
[1]
  EC50: 1320 nM

## Cc1nnc2ccc(C(=O)NC3CN(c4ncccc4F)C3)cc2c1C
[1]
  EC50: 1220 nM

## Cc1nnc2ccc(C(=O)NC3CN(c4ncc(F)cc4Cl)C3)cc2c1C
[1]
  EC50: 464 nM
[2]
  EC50: 174 nM

## COc1cc(N2CC(NC(=O)c3ccc4nnc(C)c(C)c4c3)C2)c(Cl)cn1
[1]
  EC50: 373 nM
[2]
  EC50: 356 nM

## Cc1nnc2ccc(C(=O)NC3CN(c4ccc(Cl)cn4)C3)cc2c1C
[1]
  EC50: 1270 nM

## Cc1nnc2ccc(C(=O)NC3CN(c4ncccc4Cl)C3)cc2c1C
[1]
  EC50: 952 nM

## Cc1nnc2ccc(C(=O)NC3CN(c4cc(Cl)ncc4Cl)C3)cc2c1C
[1]
  EC50: 116 nM
[2]
  EC50: 230 nM

## Cc1nnc2ccc(C(=O)NC3CN(c4ccc(F)c(F)c4)C3)cc2c1C
[1]
  EC50: 737 nM

## Cc1nnc2ccc(C(=O)NC3CN(c4ncc(Cl)cc4F)C3)cc2c1C
[1]
  EC50: 648 nM
[2]
  EC50: 82 nM

## Cc1nnc2ccc(C(=O)NC3CN(c4cnc(C5CC5)cn4)C3)cc2c1C
[1]
  EC50: 2510 nM

## Cc1nnc2ccc(C(=O)NC3CN(c4ccc(OC(F)F)nc4)C3)cc2c1C
[1]
  EC50: 1460 nM
